Experimental data: patent US20110021618A1, “METHODS OF TREATING FIBROTIC DISORDERS” (PALOMA PHARMACEUTICALS, INC., priority 2008, published 2011)

Experiments:
[1] = Half-life in the vitreous; assay type: in vivo
[2] = tested on: detached retina (Müller cells); assay: Experimental retinal detachment, Müller cell proliferation and glial scar formation (Example 2); assay type: in vivo, rabbit; settings: 600 micrograms intravitreally in PBS, versus PBS
Experimental: Methods: Experimental retinal detachments were made in the right eyes of pigmented rabbits. Six hundred micrograms of Palomid 529 in 50 microliters of PBS, or PBS alone was injected intravitreally on day 0, immediately after retinal detachment. Each rabbit received 10 micrograms of BrdU intravitreally on day 3. Animals were sacrificed on day 3 or 7, at which time the tissue was fixed in paraformaldahyde, embedded in agarose and sectioned at 100 microns. The sections were labeled with anti-BrdU, to detect dividing cells, and anti-vimentin, to identify Müller cells. Labeling was imaged on an Olympus Fluoview confocal microscope, and the resultant digital images were analyzed to determine the number of proliferating cells as well as the number and length of subretinal glial scars.

[3] = tested on: p-AKT(S473); assay: AKT phosphorylation in human lung fibroblasts, Western Blot; assay type: cell-based; settings: 30 μM
Experimental: Human lung fibroblasts are stimulated for one hour with either TGF-β1 or α-Thrombin in presence of 30 μM Palomid 529 to effect activation of signal transduction proteins. p-AKT(S473) and AKT levels are measured by Western Blot. Scanning software, Scion Image (Scion Corporation, Frederick, Md.), was used to digitize bands on Western Blot for numeric calculation of percent inhibition described in text.

[4] = tested on: SRF; assay: TGF-β1 stimulated SRF in human lung fibroblasts, Western Blot; assay type: cell-based; settings: 30 μM; 30 minutes pre-treatment before TGF-β1
Text: (§1) Transforming growth factor-beta one (TGF-β1) and alpha-Thrombin (α-Thrombin) are known to be involved in the pathogenesis of fibrotic disease. In an in vitro model of pulmonary fibrosis, TGF-β1 stimulates myofibroblast differentiation of human lung fibroblasts characterized by expression of contractile smooth muscle (SM)-specific proteins such as SM-alpha-actin (SM-α-actin). TGF-β1 also stimulates SM-α-actin expression in human lung fibroblasts which parallels a profound induction of serum response factor (SRF) expression and activity. Increased contractile gene expression with SM-α-actin as marker, increased SRF, increased connective tissue growth factor (CTGF) and increased matrix genes (e.g. fibronectin) are examples of effects observed during myofibroblast differentiation. Myofibroblast differentiation is induced by stimulation with TGF-β1 thereby increasing markers of differentiation.
(§2) Human lung fibroblasts were pre-treated with Palomid 529 for 30 minutes prior to TGF-β1 stimulation. Western Blot with antibodies against CTGF, SRG, SM-α-actin and β-actin is shown.

[5] = tested on: detached retina (Müller cells, microglia and macrophages, photoreceptors); assay: Experimental retinal detachment, single intravitreal injection (Example 1); assay type: in vivo, rabbit
[6] = tested on: SM-α-actin; assay: TGF-β1 stimulated SM-α-actin in human lung fibroblasts, Western Blot; assay type: cell-based; settings: 30 μM; 30 minutes pre-treatment before TGF-β1
Text: as §1, §2

[7] = tested on: CTGF; assay: TGF-β1 stimulated CTGF in human lung fibroblasts, Western Blot; assay type: cell-based; settings: 30 μM; 30 minutes pre-treatment before TGF-β1
Text: as §1, §2

[8] = tested on: epiretinal membrane formation; settings: human patients; cited from earlier work
[9] = 7-day detachment, versus control

Row | Compound | expected half-life in the vitreous [1] | number of BrdU labeled Müller cells per millimeter ([2]; 3 and 7 day time points) | number and size of sub-retinal scars ([2]; day 7) | inhibition of basal level of AKT phosphorylation ([3]; basal, stated with the TGF-β1 result) | decrease of AKT phosphorylation in the absence of α-Thrombin (basal level) ([3]; basal, stated with the α-Thrombin result) | inhibition of phosphorylation of AKT stimulated by TGF-β1 ([3]; one hour TGF-β1) | decrease of AKT phosphorylation in the presence of α-Thrombin ([3]; one hour α-Thrombin) | inhibition of TGF-β1 stimulated increase of SRF [4] | average number of anti-BrdU labeled Müller cell nuclei ([5]; 3-day detachment, 600 μg intravitreally, vehicle control 10.79) | reduction of average number of subretinal scars [5, 9] | reduction of length of subretinal scars [5, 9] | average number of subretinal scars ([5]; 7-day detachment, 600 μg intravitreally, control 2.03) | total number of isolectin B4 labeled cells (microglia and macrophages) ([5]; 7-day detachment, 600 μg intravitreally, control 43.9) | average number of anti-BrdU labeled Müller cell nuclei ([5]; 7-day detachment, 600 μg intravitreally, vehicle control 9.83) | average thickness of the ONL ([5]; 7 days of detachment, 600 μg intravitreally, normal retina 34.45 μm, vehicle 19.40 μm) | average length of subretinal scars ([5]; day 7, 600 μg intravitreally, control 131.28 μm) | inhibition of TGF-β1 stimulated increase of SM-α-actin [6] | inhibition of TGF-β1 stimulated increase of CTGF [7] | reducing epiretinal membrane formation [8]
1 | COc1ccc(COc2cc3oc(=O)c4cc(C(C)O)ccc4c3cc2OC)cc1 (stereo not shown) [Palomid 529] | at least 3 months | statistically significant decrease | significant decrease | 13% | 15% | 27% | 15% | 29% | 1.19 /mm of retina | approximately 4 fold | more than 20 fold | 0.39 /mm of retina | 24.5 /mm retina | 1.49 /mm of retina | 27.21 μm | 11.01 μm | 65% | 18% | –
2 | O=c1[nH]cc(F)c(=O)[nH]1 [5-fluorouracil] | – | – | – | – | – | – | – | – | – | – | – | – | – | – | – | – | – | – | not effective
